Source: patent US20020052295A1, “Diacyl derivatives of propylene diamine having herbicidal activity” (priority 1999, published 2002)

What was measured:
ECHCG = experiment: Post-emergence herbicidal activity on ECHCG (barnyardgrass); assay type: in vivo, Echinochloa crus-galli; conditions: post-emergence spray; lowest tested rate with 80% or greater inhibition; about 14 days after treatment
Description: (§1) All such uses, and the biological activity enabling such uses, are embraced by the term “herbicidal” herein. Tables 15 and 16 summarize results of tests conducted as described below to determine the pre-emergence herbicidal activity, in the form of a GR80 value, of illustrative compounds of this invention. […] Where herbicidal activity was evident but 80% inhibition was not achieved at the highest rate tested (typically 1000 g/ha), an asterisk (*) is shown in the following tables. Herbicidal activity evident in the form of symptoms of phytotoxicity, in the absence of at least 80% inhibition at any rate, is indicated in the tables by “phyto”. A blank cell in the following tables indicates no herbicidal or phytotoxic response at any rate tested.
(§2) In another set of tests, the post-emergence activity of compounds of this invention was evaluated on the cool season species listed above. The following procedure was used.
(§3) A pre-prepared topsoil mixture (described above) was placed in a pot and compacted to a depth of 1.0 to 1.25 cm from the top of the pot. Seeds of each of several monocotyledonous and dicotyledonous annual plant species were placed on top of the soil The seeds were covered with a mixture of 50% topsoil and 50% Rediearth™ in sufficient quantity to level-fill the pots. The pots were then placed on a greenhouse bench and subirrigated as needed until plants growing from the seeds had emerged and reached a suitable growth stage for post-emergence treatment, typically 9 to 14 days after planting.
(§4) A known amount of each test compound dissolved or suspended in an appropriate organic solvent was diluted with a 50:50 mix of acetone and water and applied to the plants by spraying with a standard spray nozzle in a spray volume of 3,100 l/ha at a spray pressure of […] (30 psig). Control plants were not sprayed.
(§5) After treatment the plants were placed in a greenhouse with a 30/21° C. day/night temperature regime and were subsequently watered as needed for growth. Approximately 14 days after treatment, the plants were observed and herbicidal efficacy recorded as percent inhibition by comparison with control plants.

PANMI [1] = experiment: Post-emergence herbicidal activity on PANMI (wild proso millet); assay type: in vivo, Panicum miliaceum; conditions: post-emergence spray; lowest tested rate with 80% or greater inhibition; about 14 days after treatment
SORHA [2] = experiment: Post-emergence herbicidal activity on SORHA (johnsongrass, seedling); assay type: in vivo, Sorghum halepense; conditions: post-emergence spray; lowest tested rate with 80% or greater inhibition; about 14 days after treatment
Description: as §1, §2, §3, §4, §5

SETFA [3] = experiment: Post-emergence herbicidal activity on SETFA (giant foxtail); assay type: in vivo, Setaria faberi; conditions: post-emergence spray; lowest tested rate with 80% or greater inhibition; about 14 days after treatment
Description: as §1, §2, §3, §4, §5

PANDI [4] = experiment: Post-emergence herbicidal activity on PANDI (fall panicum); assay type: in vivo, Panicum dichotomiflorum; conditions: post-emergence spray; lowest tested rate with 80% or greater inhibition; about 14 days after treatment
Description: as §1, §2, §3, §4, §5

SORVU = experiment: Post-emergence herbicidal activity on SORVU (shattercane); assay type: in vivo, Sorghum vulgare; conditions: post-emergence spray; lowest tested rate with 80% or greater inhibition; about 14 days after treatment
Description: as §1, §2, §3, §4, §5

BRAPP [5] = experiment: Post-emergence herbicidal activity on BRAPP (broadleaf signalgrass); assay type: in vivo, Brachiaria platyphylla; conditions: post-emergence spray; lowest tested rate with 80% or greater inhibition; about 14 days after treatment
Description: as §1, §2, §3, §4, §5

DIGSA [6] = experiment: Post-emergence herbicidal activity on DIGSA (large crabgrass); assay type: in vivo, Digitaria sanguinalis; conditions: post-emergence spray; lowest tested rate with 80% or greater inhibition; about 14 days after treatment
ABUTH = experiment: Pre-emergence herbicidal activity on ABUTH (velvetleaf); assay type: in vivo, Abutilon theophrasti
In short: (§6)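 GR80 values come from percent inhibition relative to untreated plants, rated roughly 14 days after planting and treating, with rates up to typically 1000 g/ha. Compound was sprayed onto the soil over freshly covered seeds as a dilution in 50:50 acetone/water; pots kept in greenhouse at 30/21° C. day/night after 0.64 cm overhead watering.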

SOLNI = experiment: Pre-emergence herbicidal activity on SOLNI (black nightshade); assay type: in vivo, Solanum nigrum
In short: as §6

AMARE = experiment: Pre-emergence herbicidal activity on AMARE (redroot pigweed); assay type: in vivo, Amaranthus retroflexus
In short: as §6

DATST = experiment: Pre-emergence herbicidal activity on DATST (jimsonweed); assay type: in vivo, Datura stramonium
In short: as §6

CHEAL = experiment: Pre-emergence herbicidal activity on CHEAL (common lambsquarters); assay type: in vivo, Chenopodium album
In short: as §6

CONAR = experiment: Pre-emergence herbicidal activity on CONAR (field bindweed); assay type: in vivo, Convolvulus arvensis
In short: as §6

POROL = experiment: Pre-emergence herbicidal activity on POROL (common purslane); assay type: in vivo, Portulaca oleracea
In short: as §6

CIRAR = experiment: Pre-emergence herbicidal activity on CIRAR (canada thistle, seedling); assay type: in vivo, Cirsium arvense
In short: as §6

PANMI [7] = experiment: Pre-emergence herbicidal activity on PANMI (wild proso millet); assay type: in vivo, Panicum miliaceum
In short: as §6

SORHA [8] = experiment: Pre-emergence herbicidal activity on SORHA (johnsongrass, seedling); assay type: in vivo, Sorghum halepense
In short: as §6

SETFA [9] = experiment: Pre-emergence herbicidal activity on SETFA (giant foxtail); assay type: in vivo, Setaria faberi
In short: as §6

PANDI [10] = experiment: Pre-emergence herbicidal activity on PANDI (fall panicum); assay type: in vivo, Panicum dichotomiflorum
In short: as §6

BRAPP [11] = experiment: Pre-emergence herbicidal activity on BRAPP (broadleaf signalgrass); assay type: in vivo, Brachiaria platyphylla
In short: as §6

DIGSA [12] = experiment: Pre-emergence herbicidal activity on DIGSA (large crabgrass); assay type: in vivo, Digitaria sanguinalis
In short: as §6

[13] = tested on: monocotyledonous and dicotyledonous annual plant species; experiment: Greenhouse pre-emergence test, all species of the test taken together; assay type: in vivo; conditions: acetochlor alone at 100 g/ha
Description: All such uses, and the biological activity enabling such uses, are embraced by the term “herbicidal” herein. […] Where herbicidal activity was evident but 80% inhibition was not achieved at the highest rate tested (typically 1000 g/ha), an asterisk (*) is shown in the following tables. Herbicidal activity evident in the form of symptoms of phytotoxicity, in the absence of at least 80% inhibition at any rate, is indicated in the tables by “phyto”. A blank cell in the following tables indicates no herbicidal or phytotoxic response at any rate tested.
The pre-emergence tests were conducted by the following procedure. Topsoil was sieved to pass through a 1.27 cm screen. Fertilizer was added to the topsoil and the mixture was then sterilized by heating. The topsoil mixture was placed in a pot and compacted to a depth of 1.0 to 1.25 cm from the top of the pot. Seeds of each of several monocotyledonous and dicotyledonous annual plant species were placed on top of the soil. Additional soil was subsequently placed over the seeds to level-fill the pot. A known amount of each test compound dissolved or suspended in an appropriate organic solvent was diluted with a 50:50 mix of acetone and water and applied to the surface of the soil. After treatment the plants were placed in a greenhouse with a 30/21° C. day/night temperature regime where they received 0.64 cm of overhead irrigation. All subsequent watering consisted of a light overhead mist and/or subirrigation as needed for germination and growth.
Pre-emergence herbicidal activity of the compound of Example 5, a racemic mixture of R- and S-enantiomers of N,N′-(1,2-propanediylbis)-3-(trifluoromethyl) benzamide, was compared with that of the individual R- and S-enantiomers, the compounds of Examples 5a and 5b respectively. The procedure was exactly as described above. Rates tested were 1000, 650, 300, 200, 100, 65, 30 and 10 g/ha.
In a greenhouse pre-emergence test conducted according to the procedure described hereinabove, R—N,N′-(1,2-propanediylbis)-3-(trifluoromethyl)benzamide (the compound of Example 5a) was applied at 200 g/ha and acetochlor was applied at 100 g/ha, both individually and in combination.
In the same greenhouse pre-emergence test, R-2-fluoro-3-trifluoromethyl-N-[1-methyl-2-(3-trifluoromethyl)phenylcarbonylamino]ethylbenzamide (the compound of Example 13) was applied at 100 g/ha and acetochlor was applied at 100 g/ha, both individually and in combination.

[14] = applied alone at 100 g/ha, greenhouse
[15] = pre-emergence application, acetochlor 100 g/ha alone

CC(CNC(=O)c1cccc(C(F)(F)F)c1)NC(=O)c1ccc(C(F)(F)F)c(F)c1 (stereo not shown) [Example 24]
Post-emergence activity (GR80) ECHCG (ECHCG): phyto | Post-emergence activity (GR80) PANMI (PANMI [1]): phyto | Post-emergence activity (GR80) SORHA (SORHA [2]): [empty] | Post-emergence activity (GR80) SETFA (SETFA [3]): [empty] | Post-emergence activity (GR80) PANDI (PANDI [4]): phyto | Post-emergence activity (GR80) SORVU (SORVU): phyto | Post-emergence activity (GR80) BRAPP (BRAPP [5]): phyto | Post-emergence activity (GR80) DIGSA (DIGSA [6]): phyto

CCOCN(C(=O)CCl)c1c(C)cccc1CC [Acetochlor, acetochlor, reference compound]
Percent control by pre-emergence application, ABUTH (ABUTH; [14]): 0% | Percent control ABUTH (ABUTH; [15]): 0% | Percent control by pre-emergence application, SOLNI (SOLNI; [14]): 75% | Percent control SOLNI (SOLNI; [15]): 75% | Percent control by pre-emergence application, AMARE (AMARE; [14]): 100% | Percent control AMARE (AMARE; [15]): 100% | Percent control by pre-emergence application, DATST (DATST; [14]): 33% | Percent control DATST (DATST; [15]): 33% | Percent control by pre-emergence application, CHEAL (CHEAL; [14]): 100% | Percent control CHEAL (CHEAL; [15]): 100% | Percent control by pre-emergence application, CONAR (CONAR; [14]): 23% | Percent control CONAR (CONAR; [15]): 23% | Percent control by pre-emergence application, POROL (POROL; [14]): 100% | Percent control POROL (POROL; [15]): 100% | Percent control by pre-emergence application, CIRAR (CIRAR; [14]): 100% | Percent control CIRAR (CIRAR; [15]): 100% | Percent control by pre-emergence application, PANMI (PANMI [7]; [14]): 83% | Percent control PANMI (PANMI [7]; [15]): 83% | Percent control by pre-emergence application, SORHA (SORHA [8]; [14]): 83% | Percent control SORHA (SORHA [8]; [15]): 83% | Percent control by pre-emergence application, SETFA (SETFA [9]; [14]): 100% | Percent control SETFA (SETFA [9]; [15]): 100% | Percent control by pre-emergence application, PANDI (PANDI [10]; [14]): 100% | Percent control PANDI (PANDI [10]; [15]): 100% | Percent control by pre-emergence application, BRAPP (BRAPP [11]; [14]): 76% | Percent control BRAPP (BRAPP [11]; [15]): 76% | Percent control by pre-emergence application, DIGSA (DIGSA [12]; [14]): 100% | Percent control DIGSA (DIGSA [12]; [15]): 100% | number of the 14 species showing >85% control [13]: 7
